# Data reported in paper PMC8815882, “Screening the pandemic response box identified benzimidazole carbamates, Olorofim and ravuconazole as promising drug candidates for the treatment of eumycetoma” (PLoS Neglected Tropical Diseases, 2022).
# Where two headings read alike, the source gives them in different places.
# Tested on: M. mycetomatis genome strain MM55
# Assay: CLSI M38-A2 based in vitro susceptibility screening (XTT or resazurin), growth at fixed concentration
# Assay type: cell-based, Madurella mycetomatis
# Details: Madurella mycetomatis; for Percent fungal survival at 100 µM: replicate 2, read-out: Percentage survival at 100um, 100 uM A (second replicate column)
# [1] = 25 uM, mean of three replicates, read-out: Percentage survival at 25um, 25 uM mean
# [2] = 25 uM, replicate A, read-out: Percentage survival at 25um, 25 um A
# [3] = 25 uM, replicate B, read-out: Percentage survival at 25um, 25 uM B
# [4] = 25 uM, replicate C, read-out: Percentage survival at 25um, 25 uM C
# [5] = mean of three replicates, read-out: Percentage survival at 100um, 100 uM mean
# [6] = replicate 1, read-out: Percentage survival at 100um, 100 uM A (first replicate column)
# [7] = replicate 3, read-out: Percentage survival at 100um, 100 uM A (third replicate column)
# [8] = first replicate column, read-out: Percentage survival at 100um, 100 uM A
# [9] = second replicate column, read-out: Percentage survival at 100um, 100 uM A
# [10] = third replicate column, read-out: Percentage survival at 100um, 100 uM A
# [11] = 25 uM, replicate A, MM55, read-out: Percentage survival at 25um, 25 um A
# [12] = mean of replicates, MM55, read-out: Percentage survival at 100um, 100 uM mean
# [13] = replicate 1, MM55, read-out: Percentage survival at 100um, 100 uM A
# [14] = replicate 2, MM55, read-out: Percentage survival at 100um, 100 uM A
# [15] = replicate 3, MM55, read-out: Percentage survival at 100um, 100 uM A
SMILES,activity at 25 µM [1] [%],activity at 25 µM [2] [%],activity at 25 µM [3] [%],activity at 25 µM [4] [%],activity at 100 µM [5] [%],activity at 100 µM [6] [%],Percent fungal survival at 100 µM [%],activity at 100 µM [7] [%],other results
Cc1onc(-c2ccccc2)c1-c1ccc(S(N)(=O)=O)cc1 [MMV002260],81.4,85.1,77.3,81.8,99.5,101,120,76.9,
NC(=O)c1[nH]c2ccc(S(N)(=O)=O)cc2c1-c1ccccc1 [MMV1581556],72.4,70.3,68.8,78.1,70.1,77.5,68,64.9,
COc1ccccc1CN[C@H]1C2CCN(CC2)[C@H]1C(c1ccccc1)c1ccccc1 [MMV690480],83.2,61.4,107,81.2,27.7,,,,activity at 100 µM [8]: -1.66%; activity at 100 µM [9]: 2.79%; activity at 100 µM [10]: 82%
C/C(=N\NC(=O)C1CC1c1ccccc1)c1ccc(NC(=O)c2ccco2)cc1 (stereo not drawn) [MMV1580487],,,,,,,,,"activity at 25 µM (25 uM, mean of replicates, MM55, read-out: Percentage survival at 25um, 25 uM mean): 83.7%; activity at 25 µM [11]: 79.1%; activity at 25 µM (25 uM, replicate B, MM55, read-out: Percentage survival at 25um, 25 uM B): 93.7%; activity at 25 µM (25 uM, replicate C, MM55, read-out: Percentage survival at 25um, 25 uM C): 78.4%; activity at 100 µM [12]: 85.2%; activity at 100 µM [13]: 91.2%; activity at 100 µM [14]: 88%; activity at 100 µM [15]: 76.5%"
C[C@H](NC(=O)C(=O)Nc1ccccc1C(C)(C)C)C(=O)N[C@@H](CC(=O)O)C(=O)COc1c(F)c(F)cc(F)c1F [MMV1580794],43.5,71.1,-10.5,70,70.9,64.2,60.7,87.8,
CC[C@@]1(O)C(=O)OCc2c1cc1n(c2=O)Cc2cc3c(CN(C)C)c(O)ccc3nc2-1 [MMV1633678],101,86.9,110,108,89.5,,,,activity at 100 µM [8]: 94.8%; activity at 100 µM [9]: 86.7%; activity at 100 µM [10]: 86.9%
Nc1nc2c(Cc3cccnc3)c[nH]c2c(=O)[nH]1 [MMV1782355],,,,,,,,,"activity at 25 µM [11]: 97.7%; activity at 100 µM [12]: 88.4%; activity at 100 µM [13]: 88.7%; activity at 100 µM [14]: 105%; activity at 100 µM [15]: 71.4%; activity at 25 µM (read-out: Percentage survival at 25um, 25 uM B): 95.7%; activity at 25 µM (read-out: Percentage survival at 25um, 25 uM C): 78.5%; activity at 25 µM (read-out: Percentage survival at 25um, 25 uM mean): 90.6%"
O=C(CCc1ccc2c(c1)OCO2)NCc1ccc(-c2ccccc2F)cc1 [MMV1782110],,102,62.1,71.9,,,,,"activity at 25 µM (25 uM, mean, read-out: Percentage survival at 25um, 25 uM mean): 78.7%; activity at 100 µM (mean, read-out: Percentage survival at 100um, 100 uM mean): 77.4%; activity at 100 µM (replicate (first column), read-out: Percentage survival at 100um, 100 uM A): 79%; activity at 100 µM (replicate (second column), read-out: Percentage survival at 100um, 100 uM A): 73.6%; activity at 100 µM (replicate (third column), read-out: Percentage survival at 100um, 100 uM A): 79.5%"
O=C1CCC(N2C(=O)c3ccccc3C2=O)C(=O)N1 (stereo not drawn) [MMV002612],90.8,89.5,90.5,92.5,85.3,88.1,84.8,82.9,
Nc1nc2c(ncn2[C@@H]2O[C@H](CO)[C@@H](O)[C@H]2F)c(=O)[nH]1 [MMV1633677],85.2,76.3,91.2,88.1,83.6,,,,activity at 100 µM [8]: 85.8%; activity at 100 µM [9]: 80.2%; activity at 100 µM [10]: 84.7%
CC(C)c1cc2c(cc1S(=O)(=O)O)[C@@]1(C)CCC[C@@](C)(C(=O)O)[C@@H]1CC2 [MMV1633675],79.3,73.4,82.6,81.8,82.2,91.1,74,81.5,
CCCCc1ccc(-c2cc(C(=O)O)cc(-c3ccc(Cl)cc3)n2)cc1 [MMV1580852],33.8,3.56,69.1,28.7,4.07,5.06,-0.471,7.62,
